Results: the supplement of paper PMC10878532, “Sperm Toolbox—A selection of small molecules to study human spermatozoa” (PLOS ONE, 2024)
Structures can show the parent of a compound that is named as a salt.

Assays:
HeLa [1] = assay: HeLa toxicity: nuclei-count effect normalised to DMSO (DMSO = 0); higher = more features changed / larger toxic effect; details: incubation time: 24h incubation
HeLa [2] = assay: Cell Painting percent induction (share of features beyond 2 z-scores vs DMSO); higher = more features changed / larger toxic effect; extreme values may be limits of the assay; details: incubation time: 24h incubation
human spermatozoa [3] = assay: total motile sperm, percent change vs DMSO (non-capacitating); higher = more of the measured sperm population than DMSO, for viability, fewer PI-positive (dead) cells than DMSO
human spermatozoa [4] = assay: viability fold change, 1 - (PI-positive fraction / DMSO median); higher = more of the measured sperm population than DMSO, for viability, fewer PI-positive (dead) cells than DMSO; details: incubation time: 3h, non-capacitating
human spermatozoa [5] = assay: progressively motile sperm, percent change vs DMSO (capacitating); higher = more of the measured sperm population than DMSO, for viability, fewer PI-positive (dead) cells than DMSO; details: incubation time: 30min incubation
human spermatozoa [6] = assay: hyperactivated motile sperm, percent change vs DMSO (capacitating); higher = more of the measured sperm population than DMSO, for viability, fewer PI-positive (dead) cells than DMSO; details: incubation time: 30min incubation
human spermatozoa [7] = assay: change in acrosome-reacted (PNA+) sperm vs DMSO, no agonist (capacitating); higher = more of the measured sperm population than DMSO, for viability, fewer PI-positive (dead) cells than DMSO; details: incubation time: 3h
human spermatozoa [8] = assay: acrosome-reacted (PNA+) sperm after agonist cocktail, percent change vs DMSO (capacitating); higher = more of the measured sperm population than DMSO, for viability, fewer PI-positive (dead) cells than DMSO; details: incubation time: 3h, capacitating + agonist cocktail 1h
human spermatozoa [9] = assay: progressively motile sperm, percent change vs DMSO (non-capacitating); higher = more of the measured sperm population than DMSO, for viability, fewer PI-positive (dead) cells than DMSO; extreme values may be limits of the assay
HepG2 = HepG2 toxicity (resazurin), effect normalised to DMSO (DMSO = 0); higher = more features changed / larger toxic effect; details: incubation time: 70h incubation
[10] = incubation time: 10min incubation, 9.99 µM
[11] = incubation time: 10min incubation, 29.9 µM
[12] = incubation time: 3h incubation, 9.99 µM
[13] = incubation time: 3h incubation, 29.9 µM
[14] = incubation time: 6h incubation, 9.99 µM
[15] = incubation time: 6h incubation, 29.9 µM
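Throughout, for progressively motile sperm, percent change vs DMSO (non-capacitating): pooled live human sperm from at least 3 donors, tracked by automated microscopy in 0.5 s time-lapse movies, compounds at 10 and 30 µM, versus median of 16 DMSO wells per plate.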
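Throughout, for total motile sperm, percent change vs DMSO (non-capacitating): sperm pooled from at least 3 donors, tracked in 0.5 s time-lapse movies by automated microscopy after 10 min, 3 h or 6 h with compound at 10 or 30 µM.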

Structure (SMILES)	HeLa toxicity: nuclei-count effect normalised (HeLa [1]; 9.99 µM) [%]	HeLa toxicity: nuclei-count effect normalised (HeLa [1]; 29.9 µM) [%]	Cell Painting percent induction (HeLa [2]; 9.99 µM) [%]	Cell Painting percent induction (HeLa [2]; 29.9 µM) [%]	total motile sperm (human spermatozoa [3]; [10]) [%]	total motile sperm (human spermatozoa [3]; [11]) [%]	total motile sperm (human spermatozoa [3]; [12]) [%]	total motile sperm (human spermatozoa [3]; [13]) [%]	total motile sperm (human spermatozoa [3]; [14]) [%]	total motile sperm (human spermatozoa [3]; [15]) [%]	viability fold change (human spermatozoa [4]; 9.99 µM)	viability fold change (human spermatozoa [4]; 29.9 µM)	progressively motile sperm (human spermatozoa [5]; 9.99 µM) [%]	progressively motile sperm (human spermatozoa [5]; 29.9 µM) [%]	hyperactivated motile sperm (human spermatozoa [6]; 9.99 µM) [%]	hyperactivated motile sperm (human spermatozoa [6]; 29.9 µM) [%]	change in acrosome-reacted (human spermatozoa [7]; 9.99 µM) [%]	change in acrosome-reacted (human spermatozoa [7]; 29.9 µM) [%]	acrosome-reacted (human spermatozoa [8]; 9.99 µM) [%]	acrosome-reacted (human spermatozoa [8]; 29.9 µM) [%]	progressively motile sperm (human spermatozoa [9]; [10]) [%]	progressively motile sperm (human spermatozoa [9]; [11]) [%]	progressively motile sperm (human spermatozoa [9]; [12]) [%]	progressively motile sperm (human spermatozoa [9]; [13]) [%]	progressively motile sperm (human spermatozoa [9]; [14]) [%]	progressively motile sperm (human spermatozoa [9]; [15]) [%]	HepG2 toxicity (HepG2; 10 µM) [%]	HepG2 toxicity (HepG2; 30 µM) [%]
Cc1ccc(S(=O)(=O)c2c(N)n(CC(O)c3ccc([N+](=O)[O-])cc3)c3nc4ccccc4nc23)cc1 (stereo unspecified)	9.49	44.6	0.072	0.648	1.39	2.71	1.22	-9.75	-1.06	-11.3	-0.179	0.2	7.62	16.1	2.52	-33	0.985	1.51	22.3	49.7	8.38	7.14	40.6	20.1	45.4	24.6		
COc1ccc(CCCN2CCC(COC(c3ccccc3)c3ccccc3)CC2)cc1	11.7	80.9	0	10.8	-0.81	2.28	0.77	-5.61	-0.213	-15.3	-1.38	-1.52	-2.66	-7.92	-18.3	-70.2	1.43	2.85	4.02	18.6	1.8	-4.83	20	-8.53	32.7	-19.4	1.6	103
Cc1[nH]c(/C=C2\C(=O)Nc3ccc(S(=O)(=O)Cc4c(Cl)cccc4Cl)cc32)c(C)c1C(=O)N1CCC[C@@H]1CN1CCCC1	94.7	92.9	20.4	17.5	-0.103	-18.4	-9.66	-49.8	-12.2	-57.4	-3.34	-3.76	-3.18	-76.5	-20.8	-80.4	3.55	20.4	-1.2	30.3	6.38	-35.3	20.9	-68.2	18.6	-82	102	103
COC(=O)c1c(C)[nH]c(C)c1C(=O)c1ccccc1Cc1ccccc1	4.01	0.735	0	0.18	0.541	-1.51	-6.62	-4.77	-5.32	-5.3	0.0191	-0.102	13.4	14.7	21.1	-0.915	0.874	0.596	25.4	48.8	-1.68	-2.66	4.27	-4.02	12.6	4.09	-4.33	10.6
CC(C)(C)c1ccc(S(=O)(=O)Nc2cnc3[nH]c(C(=O)N[C@H]4CCC[C@H]4O)c(-c4ccccc4)c3c2)cc1					-3.11	0.824	2.99	-0.471	-0.468	-0.141	0.0771	0.0653	-49.7	-49.4	-89.9	-90.6	0.406	0.723	-55.5	-40.6	-18.5	-14	-13	-11.7	-9.71	-14.5	3.81	16.8
CNc1ccc2oc(C[C@H]3O[C@@]4(CC[C@H]3C)O[C@H]([C@H](C)C(=O)c3ccc[nH]3)[C@H](C)C[C@H]4C)nc2c1C(=O)O	79.6	94.7	1.33	14.5	-57.2	-78.3	-89.9	-93.5	-92	-94.3	-2.53	-2.38	-89.8	-99.9	-68.5	-83.7	45.3	46.5	106	106	-82.5	-97.5	-99.9	-100	-99.9	-100	99.9	102
COc1cc2ncn(-c3cc(OCc4ccccc4C(F)(F)F)c(C(N)=O)s3)c2cc1OC	78.2	78.9	2.81	2.27	-14.5	-45.8	-27.6	-55.7	-30.1	-57.1	-1.45	-1.24	-3.24	-34.8	157	59.7	0.45	-0.12	123	120	16.5	-45.9	26.5	-69.6	43.2	-68.4	17.5	9.88
O=C(N1CCCCC1)N1CCCCC1Cc1ccccc1 (stereo unspecified)	-3.81	-5.74	0	0	-0.235	4.54	-3.63	0.0877	-4.64	-4.36	0.104	-0.0769	9.35	20.1	6.11	3.93			6.47	7.82	-0.571	5.81	19.1	18.1	17.3	16.4	5.44	-4.3
CN(C)CCCn1cc(C2=C(c3c[nH]c4ccccc34)C(=O)NC2=O)c2ccccc21	-5.34	3.61	0.072	0.072	1.63	0.0178	-1.97	-13.1	1.29	-6.7	-0.204	-0.45	4	5.48	11.8	-3.96	0.106	0.127	-2.39	-7.18	3.74	4.75	9.83	-7.22	23.9	-4.1	-5.59	8.33
N=C(N)Nc1nc2ccccc2[nH]1 [2-Guanidinobenzimidazole]	1.07	-4.21	0	0.036	0.879	-2.57	1.34	-1.87	1.24	-6.01	-1.37	-0.849	0.502	7.48	-8.85	-1.69			-0.796	-2.33	3.14	0.263	13	14	18.7	6.54	7.28	-2.48
CC(=O)N1CCC(C(=O)N(CCCN2CCN(Cc3ccc(F)cc3)CC2)c2ccc(C)c(Cl)c2)CC1 [B07 hydrochloride]	-8.22	-2.4	0	0	-3.45	-1.62	-0.778	-4.4	-2.31	-8.75	-0.0249	-0.378	2.3	5.54	4.68	-29.9	-0.33	-0.655	-7.75	-16.6	-0.531	-2.62	3.74	-2.22	13.9	-0.382		
CC(C)(C)c1ccc(S(=O)(=O)Nc2ccc(OC(F)(F)F)c(F)c2-c2ccc(C(=O)O)c3ncccc23)cc1F [CCR6 inhibitor]					2.36	5.45	-5.06	-0.0893	-5.81	-4.71	-0.213	-0.279	3.94	10.4	12.5	-21	0.627	0.716	4.58	-1.79	4.23	5.16	7.86	2.54	7.11	-7.05	2.54	-7.66
CO[C@H]1[C@@H](OC)C[C@H](C)[C@@H](OC)C2=CC(=O)C=C(NC(=O)/C(C)=C/C=C/[C@H](OC)[C@@H](OC(N)=O)/C(C)=C/[C@@H]1C)C2=O [Herbimycin a]	23.2	37.9	0.216	0	7.08	3.19	-13.6	-85.1	-11.7	-85	-1.59	-1.04	3.33	-50.9	-22.2	-70.4					11.6	-9.27	-37.6	-100	-46.3	-100	101	103
CCS(=O)(=O)Nc1ccc2c(c1)/C(=C(/Nc1ccc(CN3CCCCC3)cc1)c1ccccc1)C(=O)N2 [Hesperadin hydrochloride]	84.4	96.7	19.1	29.9	-7.06	-8.13	-15.5	-16.9	-15.3	-19	-0.123	-0.0637	-13.4	-15.1	-68.7	-76	0.15	1.01	-34.6	-37.5	-47.3	-48.7	-44.8	-57.8	-44.4	-55.4		
CCCCCCOC(=O)[C@]1(O)C[C@@H]2O[C@@]1(C)n1c3ccccc3c3c4c(c5c6ccccc6n2c5c31)C(=O)NC4 [KT 5720]	-2.2	9.55	0	0.072	-0.664	-5.21	5.89	-0.934	5.3	0.422	-0.0644	-0.13	2.73	-4.6	5.63	-20.1	1.66	0.54	0.89	0.941	-3.28	-15.1	16.6	6.24	29.8	17.9		
NC(=O)c1cccnc1 [Nicotinamid]					0.928	6.07	-8.41	-0.358	-0.499	0.662	-0.835	-0.522	3.35	13.2	16	5.44					15.4	14.2	-10.7	3.29	0.762	-3.22		
C[C@@H]1O[C@@H](O[C@H]2C[C@@H](O)[C@]3(CO)[C@H]4[C@H](O)C[C@]5(C)[C@@H](C6=CC(=O)OC6)CC[C@]5(O)[C@@H]4CC[C@]3(O)C2)[C@H](O)[C@H](O)[C@H]1O [Ouabain]	72.1	70.1	0.54	0.324																							94.6	93.2
c1cnc2c(c1)ccc1cccnc12 [Phenanthroline]	46	43	1.08	1.15	-2.32	-4.26	3.46	-8.46	-1.8	-11.3	0.0432	-0.258	10.3	16.3	18.4	17.2	0.27	0.435	8.37	9.76	-0.0696	-0.36	1.8	-21.2	-1.34	-23.3		
